# Measurements reported in US10294205B2, “Allenamide as an orthogonal handle for selective modification of cysteine in peptides and proteins” (Nanyang Technological University, priority 2014, dated 2019).
# “Also recorded” adds a separate entry of the source. Where no end group is shown, it is not given here. allenamide 1a = not defined here
# Experiments:
# peptide 5 (YDSQCFHRW) = experiment: Modification of cysteine in peptide 5 using allenamides 1b-d; assay type: biochemical; conditions: peptide sequence YDSQCFHRW; as determined by LCMS
# Procedure: After pipette mixing, reaction mixture was allowed to stand at room temperature for 10-20 minutes. […] Site selectivity was established by LC-MS/MS.
# [1] = system: peptides CGKSRF (3), KSCGRF (4) and YDSQCFHRW (5); experiment: Modification of peptides 3, 4 and 5 with allenamide 1a; assay type: biochemical
# Procedure: 100 μL of the peptide solution (250 μM in ammonium carbonate buffer of pH 8.0) was mixed with an equal amount of the solution of 1a (2.5 mM in ammonium carbonate buffer containing 5% THF). After pipette mixing, reaction mixture was allowed to stand at room temperature for 10-20 minutes. […] Site selectivity was established by LC-MS/MS.
# (§1) The irreversibility of the conjugation product was tested with peptide 5 and GSH (2). No reversion to starting material 5 was observed when the conjugation product of 5 and 1a was incubated with excess (100 equivalent) glutathione for overnight at 37° C. […] The irreversibility of specific cysteine labelling may thus enable the possibility for the protein modification in intracellular environment.
# glutathione (GSH; 2) = experiment: Modification of glutathione (2) using allenamide 1a; assay type: biochemical
# Procedure: 6.5 mg glutathione (0.021 mmol) was dissolved in 0.5 mL ammonium carbonate buffer (pH 8.0) in a 4 mL glass vial. To this solution was added 7.3 mg of allenamide 1a (0.042 mmol; 2 eq.) in 0.5 mL THF and resulting solution was mixed well using a pipette. […] This mixture was centrifuged at 8000 rpm for 5 min. Liquid was carefully decanted and the solid precipitated was washed two times with THF. The precipitate after final washing was dried in vacuum to give 9.9 mg (97% yield) of white solid (modified glutathione).
# [2] = molecular target: T1, BSA (Bovine Serum Albumin) (Bos taurus, UniProt P02769); experiment: Modification (alkylation) of BSA with compound 1a, trypsin digestion and LC-MS/MS; assay type: biochemical; conditions: DTT-reduced BSA, 30 min at 37° C., pH 8.0
# T1 construct: purchased
# Procedure: 6.6 mg of BSA (0.1 μmol) was dissolved in 1 ml of ammonium carbonate buffer (pH 8.0). To this was added 2.3 mg solid DTT (15 μmol) and after pipette mixing resulting mixture was incubated over night at 37° C. 3.7 mg of 1a (21 μmol) dissolved in 1 ml of ammonium carbonate buffer (5% THF) was then added to it and incubated again for 30 min at 37° C. After due time, protein was purified through nano-separation filtration. The purified protein was subjected to trypsin digestion and LC-MS/MS using standard protocols (FIG. 13).
# [3] = Reaction of allenamide 1a with cysteine methyl ester (free thiol and amino groups)
# Procedure: […] Reaction mixture was stirred for 30 minutes after which TLC confirmed the complete consumption of 1a. THF was evaporated on rotary evaporator and product was extracted two times in dichloromethane (2.5 mL each). Solvent was evaporated and product was purified by column chromatography (5% MeOH in dichloromethane) to get 32.8 mg (76% yield) of white solid (modified cysteine).
# [4] = Reaction of 1a with lysine, serine and methionine under similar conditions; conditions: similar conditions as for cysteine methyl ester
# [5] = molecular target: T2, bovine insulin (reduced chain A and chain B) (Bos taurus, UniProt P01317); experiment: Modification of DTT-reduced bovine insulin using 1a; assay type: biochemical
# T2 construct: purchased
# Procedure: After promising results in simple peptides, similar modification of cysteine residue in more complicated peptide sequences was also examined. A more complex pair of peptides generated from the DTT treatment of bovine insulin was tested (FIG. 10).
# 10 equivalents of solid DTT was added to 2 ml of a 10 mM solution of bovine insulin in 50 mM ammonium carbonate buffer of pH 8. The mixture after pipette mixing was allowed to stand at 70° C. under nitrogen atmosphere for 10 minutes. LCMS was done after due time and cooling to room temperature to confirm complete reduction of disulfide bonds. […] Similarly the m/Z values corresponding to chain A were obtained as 779, 1169 and 2338 corresponding to +3, +2 and +1 charge on chain A (molecular weight 2337.97). To 1 ml of the reduced insulin mixture was added 25 equivalents of 1a dissolved in 500 μL of THF and reaction mixture was allowed to stand at room temperature for 30 min. after pipette mixing. […] Thus, the expected molecular weight of modified chain B was 3743.67 (3397.67+346) and that of chain A was 3029.97 (2337.97+692) and the observed m/z values for modified chain B were at 750, 937, 1249 and 1873 corresponding to +5, +4, +3 and +2 charge and for chain A were at 1011 and 1515 corresponding to +3 and +2 charge on the chain. The site selectivity was further confirmed by MS/MS (FIGS. 11 and 12, respectively).
# BSA = molecular target: T3, BSA (Bos taurus, UniProt P02769); experiment: Labelling BSA with 6-8, SDS-PAGE analysis; assay type: biochemical, bovine; conditions: 10 nmol label, 1 nmol BSA, Tris-HCl pH 7.4, 37° C., 30 min
# T3 construct: purchased
# Procedure: 0.1 μmol/mL solution of BSA in H2O (10 μL, 1 nmol), 1.0 μmol/mL solution of 6, 7 and 8 in H2O (10 μL each, 10 nmol) and 80 μL of Tris-HCl buffer (pH 7.4) were mixed in 1 mL eppendorf tubes and incubated at 37° C. for 30 min.
# TEM1 β-Lactamase (Bla) = TEM1 β-Lactamase (Bla) (Escherichia coli, UniProt P62593); experiment: Labelling TEM1 β-lactamase with 7, SDS-PAGE analysis; assay type: biochemical, bacterial; conditions: Tris-HCl pH 7.4, 37° C., 30 min
# Procedure: For TEM1 β-Lactamase, 0.1 μmol/mL solution of β-Lactamase in H2O (10 μL, 1 nmol), 1.0 μmol/mL solution of 7 in H2O (10 μL, 10 nmol) and 80 μL of Tris-HCl buffer (pH 7.4) were mixed in a 1 mL eppendorf tube and incubated at 37° C. for 30 min. After due time, reaction mixture was subjected to SDS-PAGE analysis which confirmed no labelling. In second part of this experiment, 0.1 μmol/mL solution of β-Lactamase (1 mL) was heated with 1.0 μmol/mL solution of DTT (1 mL) at 80° C. for 10 min. After cooling down to room temperature, a 10 μL aliquot of this mixture was mixed with 10 μL of 7 (2.0 μmol/mL in H2O) and 80 μL of Tris-HCl buffer (pH 7.4) and incubated at 37° C. for 30 min.
# [6] = Irreversibility of the conjugation products against excess thiol (LCMS); assay type: physicochemical; conditions: excess (100 equivalent) glutathione, overnight at 37° C.
# Procedure: as §1
# T2 sequence (P01317 25-54 limits assumed): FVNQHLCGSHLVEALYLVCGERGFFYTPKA
# T2 sequence (P01317 85-105 limits assumed): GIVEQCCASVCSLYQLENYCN
# Sequence of TEM1 β-Lactamase (Bla) (P62593 24-286 limits assumed): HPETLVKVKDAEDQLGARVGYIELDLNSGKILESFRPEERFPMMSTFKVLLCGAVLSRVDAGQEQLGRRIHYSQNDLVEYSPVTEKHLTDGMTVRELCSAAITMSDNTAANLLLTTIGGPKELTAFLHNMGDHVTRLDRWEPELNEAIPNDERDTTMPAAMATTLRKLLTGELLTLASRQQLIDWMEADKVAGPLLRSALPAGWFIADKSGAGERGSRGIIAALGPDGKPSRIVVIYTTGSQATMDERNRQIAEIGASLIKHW
# T3 sequence (P02769 25-607): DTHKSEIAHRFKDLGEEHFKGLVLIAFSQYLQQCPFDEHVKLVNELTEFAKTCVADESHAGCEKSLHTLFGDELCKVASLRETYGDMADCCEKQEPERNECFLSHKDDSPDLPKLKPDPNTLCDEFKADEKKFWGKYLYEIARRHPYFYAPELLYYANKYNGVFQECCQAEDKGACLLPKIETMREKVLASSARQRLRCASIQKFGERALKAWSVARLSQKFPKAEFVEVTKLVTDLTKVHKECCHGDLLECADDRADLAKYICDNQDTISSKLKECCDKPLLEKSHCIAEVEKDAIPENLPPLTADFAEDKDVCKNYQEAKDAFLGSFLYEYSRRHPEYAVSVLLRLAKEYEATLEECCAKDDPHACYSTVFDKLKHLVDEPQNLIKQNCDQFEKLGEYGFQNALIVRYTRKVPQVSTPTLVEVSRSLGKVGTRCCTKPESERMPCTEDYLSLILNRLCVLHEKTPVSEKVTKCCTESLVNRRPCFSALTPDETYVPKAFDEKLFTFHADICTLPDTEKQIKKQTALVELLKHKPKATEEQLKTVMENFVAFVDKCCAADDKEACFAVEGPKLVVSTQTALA
# T1 sequence (P02769 25-607): as above
compound,measurement,setting,value
"C=C=CC(=O)NC1CCCCC1 [Allenamide 1c, N-cyclohexylbuta-2,3-dienamide]",Conversion,peptide 5 (YDSQCFHRW),Quantitative
"C=C=CC(=O)NCc1ccccc1 [Allenamide 1a, N-benzylbuta-2,3-dienamide]","Site of modification in peptides 3, 4 and 5 (LCMS and LC-MS/MS)",[1],selectively at cysteine
same,"Conversion of peptides 3, 4 and 5 (LCMS)","[1]; 250 μM peptide, 2.5 mM 1a, pH 8.0, room temperature, 10-20 minutes",quantitative conversion
same,"Reaction of other amino acid residues (histidine, lysine, tyrosine and other reactive side chains) with 1a",[1]; even after standing overnight,did not give any reaction
same,Conversion of glutathione (LCMS),"glutathione (GSH; 2); 2 eq. 1a, ammonium carbonate buffer pH 8.0/THF, after 15 min",complete conversion
same,"Site of modification in glutathione (NMR, LC-MS/MS)",glutathione (GSH; 2); cysteine thiol versus amino groups,modification at the cysteine residue
same,Modification of cysteine residues of BSA (LC-MS/MS of tryptic peptides),[2],All cysteine residues in the detected peptides were found to be modified
same,Reaction at the free amino group of cysteine methyl ester,[3]; even when 1a was used in excess,No reaction
same,Group of cysteine methyl ester involved in the reaction,[3]; gives product 1aa,Only the free thiol group
same,"Product formation with lysine, serine and methionine",[4],no product was obtained
same,Modification of reduced insulin chains (LCMS),"[5]; 25 equivalents of 1a, room temperature, 30 min",expected modification
same,Molecules of allenamide included in chain A,"[5]; chain A, from molecular weight increment 692",four molecules
same,Molecules of allenamide included in chain B,"[5]; chain B, from molecular weight increment 346",two molecules
"C=C=CC(=O)Nc1cccc2ccccc12 [Allenamide 1d, N-(naphthalene-1-yl)buta-2,3-dienamide]",Conversion,peptide 5 (YDSQCFHRW),Quantitative
"C=C=CC(=O)NCCNC(=S)Nc1ccc2c(c1)C(=O)OC21c2ccc(O)cc2Oc2cc(O)ccc21 (single isomer, unassigned) [Compound 6]",Labelling of BSA (SDS-PAGE),BSA,labelling to have taken place successfully
C=C=CC(=O)NCCNC(=O)CCCCC[N+]1=C(/C=C/C=C2/N(C)c3ccccc3C2(C)C)C(C)(C)c2ccccc21.[Cl-] [Compound 7],Labelling of β-Lactamase after DTT treatment (SDS-PAGE),TEM1 β-Lactamase (Bla); DTT at 80° C. for 10 min before,successful labelling; also recorded: successful labeling was observed
same,Labelling of β-Lactamase without DTT treatment (SDS-PAGE),TEM1 β-Lactamase (Bla); no free cysteine,no labelling; also recorded: no labeling was observed
same,Labelling of BSA (SDS-PAGE),BSA,labelling to have taken place successfully
"C=C=CC(=O)NCC(=O)OCC [Allenamide 1b, ethyl 2-(buta-2,3-dienamido)acetate]",Conversion,peptide 5 (YDSQCFHRW),Quantitative
conjugation product of 5 and 1a: peptide YDSQCFHRW (5) modified at cysteine with allenamide 1a (YDSQC(allenamide 1a)FHRW-OH; not fully specified; reading uncertain),Reversion of conjugation product to starting material 5,[6],No reversion
